Experimental data: patent US9241947B2, “Boronic acid derivatives and therapeutic uses thereof” (priority 2013, dated 2016)
Like-named read-outs stand apart in the source and are kept apart here.

Legend:
[1] = molecular target: T1, NDM-1 (Klebsiella pneumoniae, UniProt C7C422); assay type: biochemical
[2] = molecular target: T2, VIM-1 (Pseudomonas aeruginosa, UniProt A0A0F7KYQ8); assay type: biochemical; settings: cleavage of nitrocefin (200 uM) by VIM-1 supernatant
T2 construct: made in house; host or cells: ECM6711 strain carrying pUCP24-VIM-1 plasmid (culture supernatant, not purified)

[3] = molecular target: T1, NDM-1; assay type: biochemical; settings: read-out: Ki NDM-1, Imipenem
[4] = system: KP1087 (KPC-2, CTX-M-15, SHV-11, TEM-1); experiment: Carbapenem potentiation against clinical isolate; assay type: cell-based; settings: Klebsiella pneumoniae, strain KP1087
Source text: (§1) The results are present in Table 6.
(§2) The results are present in Table 7.

[5] = system: KP1014 (VIM-1); experiment: Carbapenem potentiation against clinical isolate; assay type: cell-based; settings: Klebsiella pneumoniae, strain KP1014
Source text: as §1, §2

[6] = system: KP1074 (KPC-3, SHV-11, TEM); experiment: Carbapenem potentiation against clinical isolate; assay type: cell-based; settings: Klebsiella pneumoniae, strain KP1074
Source text: as §1, §2

[7] = system: EC1064 (NDM-1, CMY-6, CTX-M-15); experiment: Carbapenem potentiation against clinical isolate; assay type: cell-based; settings: Escherichia coli, strain EC1064
Source text: as §1, §2

[8] = system: KP1064 (KPC-2, SHV-11, TEM-1); experiment: Carbapenem potentiation against clinical isolate; assay type: cell-based; settings: Klebsiella pneumoniae, strain KP1064
Source text: as §1, §2

[9] = system: KP1004 (KPC-2, TEM-1, SHV-11); experiment: Carbapenem potentiation against clinical isolate; assay type: cell-based; settings: Klebsiella pneumoniae, strain KP1004
Source text: as §1, §2

[10] = system: AB1144 (NDM-1); experiment: Carbapenem potentiation against clinical isolate; assay type: cell-based; settings: Acinetobacter baumannii
Source text: as §1, §2

[11] = system: KP1054 (VIM-1, SHV-11); experiment: Carbapenem potentiation against clinical isolate; assay type: cell-based; settings: Klebsiella pneumoniae, strain KP1054
Source text: as §1, §2

[12] = system: KP1086 (TEM, SHV, CTX-M-15, OXA-48); experiment: Carbapenem potentiation against clinical isolate; assay type: cell-based; settings: Klebsiella pneumoniae, strain KP1086
Source text: as §1, §2

[13] = system: KP1081 (NDM-1, TEM-1, SHV-11, CMY-6, CTX-M-15); experiment: Carbapenem potentiation against clinical isolate; assay type: cell-based; settings: Klebsiella pneumoniae, strain KP1081
Source text: as §1, §2

[14] = system: KP1084 (KPC-3, SHV-11, TEM-1); experiment: Carbapenem potentiation against clinical isolate; assay type: cell-based; settings: Klebsiella pneumoniae, strain KP1084
Source text: as §1, §2

[15] = molecular target: OXA-48 (Klebsiella pneumoniae, UniProt Q6XEC0); experiment: Inhibition of purified class D carbapenemase, biapenem substrate; assay type: biochemical; settings: purified enzyme
Sequence of OXA-48 (Q6XEC0 23-265 limits assumed): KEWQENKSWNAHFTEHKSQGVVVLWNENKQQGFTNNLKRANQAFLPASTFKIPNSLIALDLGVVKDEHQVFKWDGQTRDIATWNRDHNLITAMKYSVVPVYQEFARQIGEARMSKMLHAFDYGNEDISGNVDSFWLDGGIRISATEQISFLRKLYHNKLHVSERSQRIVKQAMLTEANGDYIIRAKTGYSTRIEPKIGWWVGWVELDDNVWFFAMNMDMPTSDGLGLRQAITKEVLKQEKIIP

[16] = molecular target: SHV-12 (Klebsiella pneumoniae, UniProt P0AD64, E235K/G234S/L31Q); experiment: Inhibition of nitrocefin cleavage by purified enzyme; assay type: biochemical; settings: nitrocefin substrate; read-out: Ki (SHV-12, NCF)
Sequence of SHV-12 (P0AD64 22-286 L31Q/G234S/E235K): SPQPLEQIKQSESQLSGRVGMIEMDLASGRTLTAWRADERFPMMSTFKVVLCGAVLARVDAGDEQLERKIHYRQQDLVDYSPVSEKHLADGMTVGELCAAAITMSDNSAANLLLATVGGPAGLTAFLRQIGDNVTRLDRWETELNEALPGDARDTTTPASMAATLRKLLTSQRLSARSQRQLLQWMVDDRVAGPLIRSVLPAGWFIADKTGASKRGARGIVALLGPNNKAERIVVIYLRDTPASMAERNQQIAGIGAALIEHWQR
Protocol: Purified enzymes were mixed with various concentrations of inhibitors in reaction buffer and incubated for 10 min at room temperature. Nitrocefin was added and substrate cleavage profiles were recorded at 490 nm every 10 sec for 10 min.

[17] = system: clinical isolates expressing class A, B and D carbapenemases; experiment: Carbapenem potentiation against panel of clinical isolates; assay type: cell-based; settings: Compound 1 at fixed 5 μg/ml; biapenem, doripenem, imipenem, meropenem; all the strains
Source text: as §1

[18] = system: ECM6703 pUCP24-NDM-1; assay type: cell-based, E. coli; settings: Compound 1 at fixed 4 μg/ml or 8 μg/ml; NDM-1 producing strain
[19] = system: ECM6711 pUCP24-VIM-1; assay type: cell-based, E. coli; settings: Compound 1 at fixed 4 μg/ml or 8 μg/ml; VIM-1 producing strain
[20] = system: EA1019 (SHV-5, VIM-1); experiment: Carbapenem potentiation against clinical isolate; assay type: cell-based, Enterobacter aerogenes; settings: Klebsiella aerogenes; strain EA1019; read-out: Doripenem MIC Alone
Source text: as §1, §2

[21] = cleavage of tebipenem (100 uM) by NDM-1, read-out: Ki, Tebipenem
[22] = cleavage of biapenem (100 uM) by NDM-1, read-out: Ki, Biapenem

T1 sequence (C7C422 29-270 limits assumed): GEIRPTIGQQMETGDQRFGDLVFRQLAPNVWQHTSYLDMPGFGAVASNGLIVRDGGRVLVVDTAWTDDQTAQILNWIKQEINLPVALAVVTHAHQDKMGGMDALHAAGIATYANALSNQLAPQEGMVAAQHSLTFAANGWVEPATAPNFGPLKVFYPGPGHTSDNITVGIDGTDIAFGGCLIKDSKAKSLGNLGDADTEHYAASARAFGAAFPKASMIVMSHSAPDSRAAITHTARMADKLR

O=C(O)c1cccc2c1OB(O)[C@@H](OCc1ccccc1)C2 [Compound 13, (R)-3-(benzyloxy)-2-hydroxy-3,4-dihydro-2H-benzo[e][1,2]oxaborinine-8-carboxylic acid]
Ki ([1]; read-out: Ki, Imipenem): 10 to 100 nM
IC50 [2]: < 1000 nM
Ki [3]: 10 to 100 nM

C[C@@H](O)[C@H]1C(=O)N2C(C(=O)O)=C(S[C@@H]3CN[C@H](C(=O)N(C)C)C3)[C@H](C)[C@H]12 [Meropenem]
MIC ([4]; read-out: Meropenem MIC Alone): > 10 µg/mL
MIC ([5]; read-out: Meropenem MIC Alone): 1 to 10 µg/mL
MIC ([6]; read-out: Meropenem MIC Alone): > 10 µg/mL
MIC ([7]; read-out: Meropenem MIC Alone): > 10 µg/mL
MIC ([8]; read-out: Meropenem MIC Alone): > 10 µg/mL
MIC ([9]; read-out: Meropenem MIC Alone): 1 to 10 µg/mL
MIC ([10]; strain AB1144, read-out: Meropenem MIC Alone): > 10 µg/mL
MIC ([11]; read-out: Meropenem MIC Alone): > 10 µg/mL
MIC ([12]; read-out: Meropenem MIC Alone): > 10 µg/mL
MIC ([13]; read-out: Meropenem MIC Alone): > 10 µg/mL
MIC ([14]; read-out: Meropenem MIC Alone): > 10 µg/mL

O=C(O)c1cccc2c1OB(O)[C@@H](Sc1ccccc1)C2 [Compound 6, (R)-2-hydroxy-3-(phenylthio)-3,4-dihydro-2H-benzo[e][1,2]oxaborinine-8-carboxylic acid]
Ki ([1]; read-out: Ki, Imipenem): < 10 nM
IC50 [2]: < 1000 nM
Ki [3]: < 10 nM

NC(=O)CCS[C@H]1Cc2cccc(C(=O)O)c2OB1O [Compound 9, (R)-3-(3-amino-3-oxopropylthio)-2-hydroxy-3,4-dihydro-2H-benzo[e][1,2]oxaborinine-8-carboxylic acid]
Ki ([1]; read-out: Ki, Imipenem): > 100 nM
Ki [15]: 10 to 100 nM
Ki [16]: 100 to 1000 nM
IC50 [2]: < 1000 nM
Ki [3]: > 100 nM

CC(=O)Nc1nnc(S[C@H]2Cc3cccc(C(=O)O)c3OB2O)s1 [Compound 7, (R)-3-(5-acetamido-1,3,4-thiadiazol-2-ylthio)-2-hydroxy-3,4-dihydro-2H-benzo[e][1,2]oxaborinine-8-carboxylic acid]
Ki ([1]; read-out: Ki, Imipenem): 10 to 100 nM
Ki [15]: < 10 nM
Ki [16]: < 100 nM
IC50 [2]: < 1000 nM
Ki [3]: 10 to 100 nM

O=C(O)c1cccc2c1OB(O)[C@@H](Sc1nnc[nH]1)C2 [Compound 2, (R)-3-(4H-1,2,4-triazol-3-ylthio)-2-hydroxy-3,4-dihydro-2H-benzo[e][1,2]oxaborinine-8-carboxylic acid]
Ki [1, 21]: 10 to 100 nM
Ki ([1]; read-out: Ki, Imipenem): < 10 nM
Ki [15]: 10 to 100 nM
Ki [16]: < 100 nM
IC50 [2]: < 1000 nM
Ki [3]: < 10 nM

Nn1cnnc1S[C@H]1Cc2cccc(C(=O)O)c2OB1O [Compound 14, (R)-3-(4-amino-4H-1,2,4-triazol-3-ylthio)-2-hydroxy-3,4-dihydro-2H-benzo[e][1,2]oxaborinine-8-carboxylic acid]
Ki [16]: < 100 nM
IC50 [2]: < 1000 nM

O=C(O)c1cccc2c1OB(O)[C@@H](Sc1nncs1)C2 [Compound 1, (R)-3-(1,3,4-thiadiazol-2-ylthio)-2-hydroxy-3,4-dihydro-2H-benzo[e][1,2]oxaborinine-8-carboxylic acid]
carbapenem MIC in the presence of Compound 1 [17]: significantly reduced
imipenem MIC in the presence of Compound 1 [18]: decreased to the level of the strain containing empty vector
Ki [1, 22]: 10 to 100 nM
Ki [1, 21]: > 100 nM
Ki ([1]; read-out: Ki, Imipenem): 10 to 100 nM
imipenem MIC in the presence of Compound 1 [19]: decreased to the level of the strain containing empty vector
IC50 [2]: < 1000 nM
Ki [3]: 10 to 100 nM

O=C(O)c1cccc2c1OB(O)[C@@H](Sc1nccs1)C2 [Compound 11, (R)-2-hydroxy-3-(thiazol-2-ylthio)-3,4-dihydro-2H-benzo[e][1,2]oxaborinine-8-carboxylic acid]
Ki ([1]; read-out: Ki, Imipenem): > 100 nM
Ki [16]: < 100 nM
IC50 [2]: ≥ 1000 nM
Ki [3]: > 100 nM

NC(=O)CS[C@H]1Cc2cccc(C(=O)O)c2OB1O [Compound 3, (R)-3-(2-amino-2-oxoethylthio)-2-hydroxy-3,4-dihydro-2H-benzo[e][1,2]oxaborinine-8-carboxylic acid]
Ki [1, 22]: > 100 nM
Ki [1, 21]: > 100 nM
Ki ([1]; read-out: Ki, Imipenem): > 100 nM
Ki [15]: < 10 nM
Ki [16]: 100 to 1000 nM
Ki [3]: > 100 nM

O=C(O)c1cccc2c1OB(O)[C@@H](Sc1cccnc1)C2 [Compound 8, (R)-2-hydroxy-3-(pyridin-3-ylthio)-3,4-dihydro-2H-benzo[e][1,2]oxaborinine-8-carboxylic acid]
Ki ([1]; read-out: Ki, Imipenem): > 100 nM
IC50 [2]: < 1000 nM
Ki [3]: > 100 nM

C[C@@H](O)[C@H]1C(=O)N2C(C(=O)O)=C(S[C@@H]3CN[C@H](CNS(N)(=O)=O)C3)[C@H](C)[C@H]12 [Doripenem]
MIC ([4]; read-out: Doripenem MIC Alone): > 10 µg/mL
MIC ([5]; read-out: Doripenem MIC Alone): > 10 µg/mL
MIC ([6]; read-out: Doripenem MIC Alone): > 10 µg/mL
MIC ([7]; read-out: Doripenem MIC Alone): > 10 µg/mL
MIC ([8]; read-out: Doripenem MIC Alone): > 10 µg/mL
MIC ([9]; read-out: Doripenem MIC Alone): 1 to 10 µg/mL
MIC ([10]; strain AB1144, read-out: Doripenem MIC Alone): > 10 µg/mL
MIC ([11]; read-out: Doripenem MIC Alone): > 10 µg/mL
MIC ([12]; read-out: Doripenem MIC Alone): > 10 µg/mL
MIC ([13]; read-out: Doripenem MIC Alone): > 10 µg/mL
MIC ([14]; read-out: Doripenem MIC Alone): > 10 µg/mL
MIC [20]: > 10 µg/mL

O=C(O)c1cccc2c1OB(O)[C@@H](Sc1c[nH]nn1)C2 [Compound 12, (R)-3-(1H-1,2,3-triazol-4-ylthio)-2-hydroxy-3,4-dihydro-2H-benzo[e][1,2]oxaborinine-8-carboxylic acid]
Ki ([1]; read-out: Ki, Imipenem): 10 to 100 nM
IC50 [2]: < 1000 nM
Ki [3]: 10 to 100 nM

CC(=N)S[C@H]1Cc2cccc(C(=O)O)c2OB1O [Compound 10, (R)-2-hydroxy-3-(1-iminoethylthio)-3,4-dihydro-2H-benzo[e][1,2]oxaborinine-8-carboxylic acid]
Ki ([1]; read-out: Ki, Imipenem): 10 to 100 nM
IC50 [2]: ≥ 1000 nM
Ki [3]: 10 to 100 nM

Nc1nnc(S[C@H]2Cc3cccc(C(=O)O)c3OB2O)s1 [Compound 4, (R)-3-(5-amino-1,3,4-thiadiazol-2-ylthio)-2-hydroxy-3,4-dihydro-2H-benzo[e][1,2]oxaborinine-8-carboxylic acid]
Ki [1, 22]: < 10 nM
Ki [1, 21]: < 10 nM
Ki ([1]; read-out: Ki, Imipenem): < 10 nM
Ki [15]: < 10 nM
Ki [16]: < 100 nM
IC50 [2]: < 1000 nM
Ki [3]: < 10 nM

Cn1nnnc1S[C@H]1Cc2cccc(C(=O)O)c2OB1O [Compound 5, (R)-2-hydroxy-3-(1-1H-tetrazol-5-ylthio)-3,4-dihydro-2H-benzo[e][1,2]oxaborinine-8-carboxylic acid]
Ki ([1]; read-out: Ki, Imipenem): 10 to 100 nM
IC50 [2]: ≥ 1000 nM
Ki [3]: 10 to 100 nM

C[C@@H](O)[C@H]1C(=O)N2C(C(=O)O)=C(SCCN=CN)C[C@H]12 [Imipenem]
MIC ([4]; read-out: Imipenem MIC Alone): 1 to 10 µg/mL
MIC ([5]; read-out: Imipenem MIC Alone): > 10 µg/mL
MIC ([6]; read-out: Imipenem MIC Alone): > 10 µg/mL
MIC ([7]; read-out: Imipenem MIC Alone): > 10 µg/mL
MIC ([8]; read-out: Imipenem MIC Alone): > 10 µg/mL
MIC ([9]; read-out: Imipenem MIC Alone): > 10 µg/mL
MIC ([10]; read-out: Imipenem MIC Alone): > 10 µg/mL
MIC ([11]; read-out: Imipenem MIC Alone): 1 to 10 µg/mL
MIC ([12]; read-out: Imipenem MIC Alone): > 10 µg/mL
MIC ([13]; read-out: Imipenem MIC Alone): > 10 µg/mL
MIC ([14]; read-out: Imipenem MIC Alone): > 10 µg/mL

C[C@@H](O)[C@H]1C(=O)N2C(C(=O)[O-])=C(SC3Cn4cnc[n+]4C3)[C@H](C)[C@H]12 (stereo partly drawn) [Biapenem]
MIC ([13]; read-out: Biapenem MIC Alone): > 10 µg/mL
